# Measured values from ChEMBL document CHEMBL3112525, “Synthesis and biological evaluation of 4-(1,2,3-triazol-1-yl)coumarin derivatives as potential antitumor agents” (Bioorg Med Chem Lett, 2014).
# Legend:
# A549 [1] = test: Antiproliferative activity against human A549 cells after 48 hrs by MTT assay; assay type: functional, cell-based; settings: A549, 48 h
# MCF7 [2] = test: Antiproliferative activity against human MCF7 cells after 48 hrs by MTT assay; assay type: functional, cell-based; settings: MCF7, 48 h
# SW480 = test: Antiproliferative activity against human SW480 cells after 48 hrs by MTT assay; assay type: functional, cell-based; settings: SW480, 48 h
# A549 [3] = test: Induction of apoptosis in human A549 cells assessed as late necrotic cells at after 48 hrs by annexin V-FITC and propidium iodide staining-based flow cytometry (reference value: 0.920 %); assay type: functional
# A549 [4] = test: Induction of apoptosis in human A549 cells assessed as late apoptotic cells at after 48 hrs by annexin V-FITC and propidium iodide staining-based flow cytometry (reference value: 2.87 %); assay type: functional
# A549 [5] = test: Induction of apoptosis in human A549 cells assessed as early apoptotic cells at after 48 hrs by annexin V-FITC and propidium iodide staining-based flow cytometry (reference value: 0.720 %); assay type: functional
# MCF7 [6] = test: Cell cycle arrest in human MCF7 cells assessed as accumulation at S phase at 5 uM after 48 hrs by flow cytometry (Rvb =31.40 %); assay type: functional
# A549 [7] = test: Induction of apoptosis in human A549 cells assessed as viable cells at after 48 hrs by annexin V-FITC and propidium iodide staining-based flow cytometry (reference value: 95.5 %); assay type: functional
# MCF7 [8] = test: Cell cycle arrest in human MCF7 cells assessed as accumulation at G1 phase at 5 uM after 48 hrs by flow cytometry (Rvb =52.82 %); assay type: functional
# MCF7 [9] = test: Cell cycle arrest in human MCF7 cells assessed as accumulation at G2/M phase at 5 uM after 48 hrs by flow cytometry (Rvb =15.78 %); assay type: functional
IC50 (A549 [1]) [µM],IC50 (MCF7 [2]) [µM],IC50 (SW480) [µM],SMILES,other results
13.3,41.6,16.9,O=c1cc(-n2cc(COc3ccnc4ccc(Br)cc34)nn2)c2cc(Br)ccc2o1,–
7.94,24.8,19.1,O=c1cc(-n2cc(COc3ccccc3O)nn2)c2cc(Br)ccc2o1,–
11.6,12.7,10.8,CCc1ccc(OCc2cn(-c3cc(=O)oc4ccc(Br)cc34)nn2)cc1,–
11.8,2.04,2.09,Nc1ccc(OCc2cn(-c3cc(=O)oc4ccc(Br)cc34)nn2)cc1,–
0.85,7,1.77,O=c1cc(-n2cc(COc3ccc(F)cc3)nn2)c2cc(Br)ccc2o1,–
9.14,45.8,10.7,CS(=O)(=O)Oc1ccc2c(-n3cc(COc4ccccc4)nn3)cc(=O)oc2c1,–
0.68,5.84,3.82,O=c1cc(-n2cc(COc3ccc(F)cc3)nn2)c2ccccc2o1,–
0.52,5.89,1.99,COc1ccc2c(-n3cc(COc4ccc(F)cc4)nn3)cc(=O)oc2c1,Activity (A549 [3]): 12.3%; Activity (A549 [4]): 15.9%; Activity (A549 [5]): 19.5%; Activity (MCF7 [6]): 12.73%; Activity (A549 [7]): 52.3%; Activity (MCF7 [8]): 3.06%; Activity (MCF7 [9]): 84.21%
> 50,> 50,> 50,O=c1cc(N2CCN(Cc3cccc(O)c3)CC2)c2ccccc2o1,–
> 50,> 50,> 50,COc1ccc(CN2CCN(c3cc(=O)oc4ccccc34)CC2)cc1,–
> 50,> 50,> 50,O=c1cc(N2CCN(Cc3ccccc3O)CC2)c2ccccc2o1,–
21.6,24.2,35,COc1ccc(OCCN2CCN(c3cc(=O)oc4ccccc34)CC2)cc1,–
–,13.9,–,CCOC(=O)c1ccc(OCc2cn(-c3c([N+](=O)[O-])cnc4ccc(Br)cc34)nn2)cc1,–

# More lines, now with the values behind:
SMILES,IC50 (A549 [1]) [µM],IC50 (MCF7 [2]) [µM],IC50 (SW480) [µM],other results
O=c1cc(-n2cc(-c3ccccc3)nn2)c2cc(Br)ccc2o1,11.2,9.45,6.66,–
O=c1cc(-n2cc(CNc3ccccc3)nn2)c2cc(Br)ccc2o1,13.2,> 50,18.4,–
O=c1cc(-n2cc(CSc3ccccc3)nn2)c2cc(Br)ccc2o1,3.51,36.8,15.4,–
O=c1cc(-n2cc(COc3ccccc3)nn2)c2cc(Br)ccc2o1,12.3,1.72,4.99,–
O=c1cc(-n2cc(COc3cccnc3)nn2)c2cc(Br)ccc2o1,24.8,39.8,39.8,–
COC(=O)c1ccccc1OCc1cn(-c2cc(=O)oc3ccc(Br)cc23)nn1,5.25,34.1,20.2,–
O=c1cc(-n2cc(COc3ccccc3Br)nn2)c2cc(Br)ccc2o1,8.43,28.9,20.1,–
O=c1cc(-n2cc(COc3ccc(Br)cc3)nn2)c2cc(Br)ccc2o1,24.5,1.92,1.31,–
O=c1cc(-n2cc(COc3ccc(C(F)(F)F)cc3)nn2)c2cc(Br)ccc2o1,1.62,11.4,3.09,–
COC(=O)c1ccc(OCc2cn(-c3cc(=O)oc4ccc(Br)cc34)nn2)cc1,0.66,3.13,3.62,–
O=c1cc(-n2cc(COc3ccccc3)nn2)c2cc(O)ccc2o1,> 50,> 50,> 50,–
O=c1cc(-n2cc(COc3ccccc3)nn2)c2cc(OCCN3CCOCC3)ccc2o1,> 50,> 50,> 50,–
O=c1cc(-n2cc(COc3ccccc3)nn2)c2ccc(OS(=O)(=O)c3ccc(F)cc3)cc2o1,> 50,> 50,> 50,–
COc1ccc2oc(=O)cc(-n3cc(COc4ccc(F)cc4)nn3)c2c1,3.15,8.56,25.9,–
O=c1cc(-n2cc(COc3ccc(F)cc3)nn2)c2cc(O)ccc2o1,2.01,4.62,2.72,–
O=c1cc(N2CCN(Cc3ccc(F)cc3)CC2)c2ccccc2o1,> 50,> 50,> 50,–
O=c1cc(N2CCN(Cc3ccccc3)CC2)c2ccccc2o1,> 50,> 50,> 50,–
COc1cc(CN2CCN(c3cc(=O)oc4ccccc34)CC2)ccc1O,> 50,> 50,> 50,–
COc1ccc(CN2CCN(c3cc(=O)oc4ccccc34)CC2)cc1OC,> 50,> 50,> 50,–
O=c1cc(N2CCN(CCOc3ccc(F)cc3)CC2)c2ccccc2o1,11.9,> 50,24,–
O=[N+]([O-])c1cnc2ccc(Br)cc2c1-n1cc(CSc2ccccc2)nn1,–,22.7,–,–
O=[N+]([O-])c1cnc2ccc(Br)cc2c1-n1cc(COc2ccccc2)nn1,–,7.69,–,–
COc1cccc2c1C(=O)c1c(O)c3c(c(O)c1C2=O)C[C@@](O)(C(=O)CO)C[C@@H]3O[C@H]1C[C@H](N)[C@H](O)[C@H](C)O1 [DOXORUBICIN],1.65,3.51,2.43,–
